From patent publication US12060588B2, “Methods of editing DNA methylation” (Whitehead Institute for Biomedical Research, priority 2016, dated 2024)

System: BDNF promoter IV
Assay: Tet-assisted bisulfite sequencing (TAB-seq) of 5-hmC in BDNF promoter IV
Format: cell-based, mouse
Settings: with 4 BDNF gRNAs; 40 and 60 hours post infection
Protocol: FIGS. 11A-11L depict targeted demethylation of BDNF promoter IV by dCas9-Tet1 in neurons. […] PAM for each gRNA is highlighted by a red box. […] Note that cultured neurons were treated with AraC on DIV2 to halt cell division in glial cells and neural progenitors. […] FIG. 11C provides EDU labeling analysis for the mouse primary neurons over the course of KCl treatment for 24 hrs. Note that extremely few EDU positive cells were observed. Stained in red for EDU, green for MAP2 and DAPI for nuclei. Scale bar: 500 um. FIG. 11D Upper panel: provides quantification of neuronal density over the course of KCl treatment. The post-mitotic neuron density remains steadily around 4.5×10^4/cm2 over time. Bars represent mean±SD of three experimental replicates. Lower panel: provides quantification of the EDU positive cells over the course of KCl treatment. Less than 2% of the cells are EDU-positive over 24 hrs. Bars represent mean±SD of three experimental replicates. FIG. 11E provides confocal micrographs of BDNF induction by ectopic expression of dCas9-Tet1 and a set of 4 gRNAs targeting BDNF promoter IV. Stained in green for BDNF, magenta for MAP2, red for Cherry and blue for DAPI. […]
Because post-mitotic neurons were used for these experiments, loss of methylation was likely due to active demethylation. […] Similarly, 5-hmC was also detected after KCl treatment (FIG. 11I). […]

## dCas9-Tet1: catalytically inactive Cas9 (dCas9) fused through NLS to the Tet1 catalytic domain, SEQ ID NO: 159; lentivirally expressed with gRNAs
  5-hmC level in BDNF promoter IV: detected 40-hour post infection with dCas9-Tet1 and gRNA lentiviruses and diminished after 60 hours
